PMC6628362, “A New Strategy for Glioblastoma Treatment: In Vitro and In Vivo Preclinical Characterization of Si306, a Pyrazolo[3,4-d]Pyrimidine Dual Src/P-Glycoprotein Inhibitor” (Cancers, 2019)
Like-named read-outs stand apart in the source and are kept apart here.

Key:
T98G = assay: Cell viability, T98G (Table S1); format: cell-based; conditions: Homo sapiens, 72 h
Protocol: 1. Cell Growth Inhibition by Dasatinib, Si306 and Pro-Si306
GB cell lines BT138, T98G and A172 were treated with Si306 and pro-Si306 at concentrations ranging from 1 to 100 µM, or with DMSO as a control. Cell viability was evaluated 72 h after treatment for T98G and A172 cell lines and after 24 h for BT-138. In table S1 the IC50 values are reported.
Table S1. Sensitivity of glioblastoma multiforme (GBM) cells to Si306 and pro-Si306 expressed as IC50 […]
Figure S1. Rho 123 accumulation in U87-TxR cells treated with increasing concentrations of TQ (A), Dex-VER (B), Si306 (C) and pro-Si306 (D).
(1 picture or pasted object on this page, not shown here)

[1] = Brain and tissue distribution of Si306 in mice; format: in vivo, BALB/C mice; conditions: for Tmax / Kp / AUC(0-inf) / Cmax / half-life / AUC(0-t) / MRT inf: male, BALB/C, mouse; for Tmax / AUC(0-inf) / Cmax / half-life / AUC(0-t) / MRT inf: brain; for Kp: brain/plasma, read-out: AUC brain to plasma ratio; for AUC(0-t): read-out: AUC 0→24 h; for MRT inf: read-out: MRT 0→∞
Description: (§1) Naive male BALB/C mice (weight 20 ± 2 g) were ordered from Charles River (Milan, Italy). All animals were pathogen free and approximately 4–6 weeks old when they arrived. The adaption period to the environment was not less than seven days. All the procedures used on animals in this study were approved by Institutional Animal Use and Care Committee at Università Cattolica del S. Cuore, Rome and Università degli Studi di Siena and authorized by the Italian Ministry of Health, according to Legislative Decree 116/92, which implemented the European Directive 86/609/EEC on laboratory animal protection in Italy. Methods for all the conducted experiments were performed in accordance with regulations, standards and guidelines of the Animal Use and Care Committee of Università Cattolica del S. Cuore, Rome and Università degli Studi di Siena.
(§2) Si306 was dissolved in a mixture of Tween80 (10% v/v), benzyl alcohol (1% v/v) and a 10 mM solution of citric acid. The compound was administered intravenously as a single dose of 25 mg/kg in 200 μL of volume. At several time points (0.08, 0.25, 0.5, 1, 2, 4, 8, 24 h), after drug administration, mice were treated i.p. with heparin (5000 U/kg) and sacrificed under CO2. Five animals were used for each time point. Blood, brain, liver and kidneys were collected for the following quantitative analysis. Approximately 500–600 μL of blood was collected from each animal and transferred to a tube containing 10 μL of heparin and mixed briefly.
(§3) For the oral PK studies, mice received a single dose of 50 mg/kg of Si306 (dissolved in the same vehicle used for i.v. studies) in 400 μL of final volume by gavage. At nine time-points (0.25, 0.5, 1, 1.5, 2, 3, 4, 8, 24 h) after administration, mice were sacrificed under CO2. Blood and organs were collected and analyzed by LC-MS. The pharmacokinetic parameters, including area under concentration-time curve (AUC), maximum plasma concentration (Cmax), half-time (t1/2), apparent volume of distribution (V), plasma clearance (CL) and mean residence time (MRT), were calculated by non-compartmental analysis using PKSolver software (ver. 1.0, Nanjing, China).
(§4) Blood samples were centrifuged at 5000 rpm for 20 min to separate the plasma fraction, which was subsequently collected in a test tube. Acetonitrile (1 mL, with Si34 as internal standard at the concentration of 5 μg/mL) was added to each sample to denature proteins. Samples were centrifuged at 5000 rpm for 20 min, and the supernatant was recovered, dried under vacuum, solubilized again in methanol (100 μL), and analyzed. Brain and the other organs were homogenized using a T10 basic ULTRA-TURRAX® homogenizer (Bioclass, Pistoia, Italy); in order to extract the compound from the tissue, acetonitrile internal standard solution was added, and the homogenate was centrifuged at 5000 rpm for 20 min. The supernatant was recovered, filtered and analyzed by LC-MS. The quantification of each compound was performed by reference to the appropriate calibration curve. Representative LC-MS chromatograms for Si306 and for Si34 are reported in Figure S2 and Figure S3 respectively.

[2] = Plasma pharmacokinetics of Si306 in mice; format: in vivo, BALB/C mice; conditions: for AUC(0-t): read-out: AUC 0→24 h; for MRT inf: read-out: MRT 0→∞
Description: as §1, §2, §3, §4

[3] = male, BALB/C, mouse, iv, 25 mg/kg, mice
[4] = male, BALB/C, mouse, po, 50 mg/kg, mice

ClC(Cn1ncc2c(Nc3cccc(Br)c3)nc(SCCN3CCOCC3)nc21)c1ccccc1 (stereo not drawn) [Si306]
IC50 (T98G): 460 ± 20 nM | maximum concentration into the brain ([1]; i.v., 25 mg/kg): 2.94 µg/g | Tmax ([1]; iv, 25 mg/kg, i.v., 25 mg/kg, read-out: Tmax): 4.8 min | Tmax ([1]; iv, 25 mg/kg, i.v., 25 mg/kg, read-out: time of maximum concentration into the brain (converted)): 5 min | Tmax ([1]; po, 50 mg/kg, p.o., 50 mg/kg, read-out: Tmax): 30 min | Tmax ([1]; po, 50 mg/kg, p.o., 50 mg/kg, read-out: time of maximum concentration into the brain (converted)): 30 min | Kp ([1]; iv, 25 mg/kg): 0.095 | Kp ([1]; oral route, 50 mg/kg): 1.19 | AUC(0-inf) ([1]; iv, 25 mg/kg): 2150 ng·h/mL | Cmax ([1]; iv, 25 mg/kg): 2940 ng/g | half-life ([1]; iv, 25 mg/kg): 158 min | AUC(0-t) ([1]; iv, i.v., 25 mg/kg): 2140 ng·h/mL | MRT inf ([1]; iv, i.v., 25 mg/kg): 1.48 h | AUC(0-inf) ([1]; po, 50 mg/kg): 18000 ng·h/mL | Cmax ([1]; po, 50 mg/kg): 10600 ng/g | half-life ([1]; po, 50 mg/kg): 126 min | AUC(0-t) ([1]; po, p.o., 50 mg/kg): 18000 ng·h/mL | MRT inf ([1]; po, p.o., 50 mg/kg): 1.2 h | AUC brain/plasma, fold higher p.o. with respect to i.v. ([1]; p.o. 50 mg/kg vs i.v. 25 mg/kg): 12 fold | maximum concentration into the brain ([1]; p.o., 50 mg/kg): 10.65 µg/g | Cmax for i.v. treatment, times higher than p.o. ([2]; i.v. 25 mg/kg vs p.o. 50 mg/kg): 8.5 times | CL z/F ([2]; i.v., 25 mg/kg, mice): 1.10 L/h/kg | V z/F ([2]; i.v., 25 mg/kg, mice): 8.17 L/kg | Tmax ([2]; male, BALB/C, mouse, iv, 25 mg/kg, i.v., 25 mg/kg, mice, read-out: Tmax): 4.8 min | Tmax ([2]; male, BALB/C, mouse, iv, 25 mg/kg, i.v., 25 mg/kg, mice, read-out: time of peak plasma concentration (converted)): 5 min | AUC(0-inf) [2, 3]: 22800 ng·h/mL | Cmax [2, 3]: 25400 ng/mL | half-life [2, 3]: 309 min | AUC(0-t) [2, 3]: 22300 ng·h/mL | MRT inf [2, 3]: 3.78 h | bioavailability ([2]; male, BALB/C, mouse, oral, 50 mg/kg, mice, p.o. 50 mg/kg vs i.v. 25 mg/kg, equation (1)): 33.3% | AUC(0-inf) [2, 4]: 15200 ng·h/mL | Cmax [2, 4]: 2970 ng/mL | half-life [2, 4]: 358 min | AUC(0-t) [2, 4]: 14500 ng·h/mL | CL/F ([2]; male, BALB/C, mouse, po, 50 mg/kg, mice, read-out: CL z/F (converted)): 54.8 mL/min/kg | MRT inf [2, 4]: 5.7 h | Vd/F ([2]; male, BALB/C, mouse, po, 50 mg/kg, mice, read-out: V z/F): 28.3 L/kg | Tmax ([2]; male, BALB/C, mouse, po, 50 mg/kg, p.o., 50 mg/kg, mice, read-out: Tmax): 90 min
